A short description of this data set: activity coefficient (dimensionless); of the first substance listed, at infinite dilution; xn = mol fraction of the nth substance listed. Particulars: 101 kPa, Liquid, Chromatography, x1 = 0.

Numbers after ± are expanded uncertainties.

For 23 compounds, activity coefficient results are on record in the NIST ThermoML archive (doi:10.1016/j.jct.2011.04.018).

On to `Cc1ccccc1C` [1,2-dimethylbenzene] + O=S(=O)([N-]S(=O)(=O)C(F)(F)F)C(F)(F)F.OCCC[n+]1ccccc1, for which the activity coefficient came to 3.11 ± 0.21 (318.15 K); 3.12 ± 0.21 (328.15 K); 3.13 ± 0.21 (338.15 K); 3.13 ± 0.21 (348.15 K); 3.14 ± 0.21 (358.15 K); 3.15 ± 0.21 (368.15 K). In addition, under “378.15 K”, the activity coefficient is 3.15 ± 0.21.

For `Cc1cccc(C)c1` [1,3-dimethylbenzene] + O=S(=O)([N-]S(=O)(=O)C(F)(F)F)C(F)(F)F.OCCC[n+]1ccccc1, the activity coefficient came out at 3.58 ± 0.24 (318.15 K); 3.58 ± 0.24 (328.15 K); 3.59 ± 0.24 (338.15 K); 3.6 ± 0.25 (348.15 K); 3.6 ± 0.25 (358.15 K); 3.61 ± 0.25 (368.15 K). Besides, where the note is “378.15 K”, the activity coefficient amounted to 3.62 ± 0.25.

As for `Cc1ccc(C)cc1` [1,4-dimethylbenzene] + O=S(=O)([N-]S(=O)(=O)C(F)(F)F)C(F)(F)F.OCCC[n+]1ccccc1, the activity coefficient is, setting by setting: (318.15 K) 3.58 ± 0.24; (328.15 K) 3.6 ± 0.25; (338.15 K) 3.61 ± 0.25; (348.15 K) 3.62 ± 0.25; (358.15 K) 3.63 ± 0.25; (368.15 K) 3.64 ± 0.25. Moreover, the activity coefficient (378.15 K) stood at 3.65 ± 0.25.

Consider `C1COCCO1` [1,4-dioxane] + O=S(=O)([N-]S(=O)(=O)C(F)(F)F)C(F)(F)F.OCCC[n+]1ccccc1, for which the activity coefficient runs as follows: (318.15 K) 0.514 ± 0.038; (328.15 K) 0.541 ± 0.04; (338.15 K) 0.568 ± 0.041; (348.15 K) 0.595 ± 0.042; (358.15 K) 0.621 ± 0.043; (368.15 K) 0.647 ± 0.044. Further, the activity coefficient (378.15 K) came to 0.672 ± 0.046.

With `C=CCCCCCCCC` [1-decene] + O=S(=O)([N-]S(=O)(=O)C(F)(F)F)C(F)(F)F.OCCC[n+]1ccccc1, the activity coefficient worked out at 142 ± 10 (308.15 K); 128 ± 9 (318.15 K); 115 ± 8 (328.15 K); 104 ± 7 (338.15 K); 95.2 ± 6.5 (348.15 K); 86.6 ± 5.9 (358.15 K). In addition, the activity coefficient (368.15 K) amounted to 79.7 ± 5.5.

As to `C=CCCCCC` [1-heptene] + O=S(=O)([N-]S(=O)(=O)C(F)(F)F)C(F)(F)F.OCCC[n+]1ccccc1, the activity coefficient runs as follows: (308.15 K) 35.7 ± 2.4; (318.15 K) 33.1 ± 2.3; (328.15 K) 30.7 ± 2.1; (338.15 K) 28.5 ± 1.9; (348.15 K) 26.7 ± 1.8; (358.15 K) 25.2 ± 1.7. For the same compound, the activity coefficient (368.15 K) came to 23.7 ± 1.6.

On to `C#CCCCCC` [1-heptyne] + O=S(=O)([N-]S(=O)(=O)C(F)(F)F)C(F)(F)F.OCCC[n+]1ccccc1, for which the activity coefficient came to 10.1 ± 0.7 (308.15 K); 9.81 ± 0.67 (318.15 K); 9.53 ± 0.65 (328.15 K); 9.21 ± 0.63 (338.15 K); 9 ± 0.61 (348.15 K); 8.74 ± 0.6 (358.15 K). For the same compound, the activity coefficient (368.15 K) came out at 8.55 ± 0.58.

Turning to `C#CCCCC` [1-hexyne] + O=S(=O)([N-]S(=O)(=O)C(F)(F)F)C(F)(F)F.OCCC[n+]1ccccc1, the activity coefficient by setting is: (308.15 K) 6.38 ± 0.43; (318.15 K) 6.25 ± 0.43; (328.15 K) 6.13 ± 0.42; (338.15 K) 6 ± 0.41; (348.15 K) 5.91 ± 0.4; (358.15 K) 5.8 ± 0.4. The activity coefficient (368.15 K) stood at 5.72 ± 0.39.

For `C#CCCCCCC` [1-octyne] + O=S(=O)([N-]S(=O)(=O)C(F)(F)F)C(F)(F)F.OCCC[n+]1ccccc1, the activity coefficient runs as follows: (308.15 K) 16.2 ± 1.1; (318.15 K) 15.5 ± 1.1; (328.15 K) 14.9 ± 1; (338.15 K) 14.2 ± 1; (348.15 K) 13.7 ± 0.9; (358.15 K) 13.2 ± 0.9. Where the note is “368.15 K”, the activity coefficient amounted to 12.7 ± 0.9.

Consider `C=CCCC` [1-pentene] + O=S(=O)([N-]S(=O)(=O)C(F)(F)F)C(F)(F)F.OCCC[n+]1ccccc1, for which the activity coefficient (308.15 K) amounted to 14.2 ± 1; the activity coefficient (318.15 K) was 13.5 ± 0.9; the activity coefficient (328.15 K) is 12.7 ± 0.9; the activity coefficient (338.15 K) was determined as 12 ± 0.8; the activity coefficient (348.15 K) came out at 11.5 ± 0.8.

On to `CC(C)CC(C)(C)C` [2,2,4-trimethylpentane] + O=S(=O)([N-]S(=O)(=O)C(F)(F)F)C(F)(F)F.OCCC[n+]1ccccc1, for which the activity coefficient is, setting by setting: (308.15 K) 81.7 ± 5.6; (318.15 K) 73.9 ± 5.1; (328.15 K) 67 ± 4.6; (338.15 K) 60.7 ± 4.2; (348.15 K) 55.7 ± 3.8; (358.15 K) 51.4 ± 3.5. For the same compound, where the note is “368.15 K”, the activity coefficient stood at 47.3 ± 3.2.

On to `CCC(C)(C)C` [2,2-dimethylbutane] + O=S(=O)([N-]S(=O)(=O)C(F)(F)F)C(F)(F)F.OCCC[n+]1ccccc1, for which the activity coefficient (308.15 K) stood at 41 ± 3; the activity coefficient (318.15 K) was 37.3 ± 2.6; the activity coefficient (328.15 K) amounted to 33.9 ± 2.3; the activity coefficient (338.15 K) was 30.9 ± 2.1; the activity coefficient (348.15 K) came to 28.5 ± 1.9; the activity coefficient (358.15 K) is 26.3 ± 1.8.

As to `CCC(C)(C)OC` [2-methoxy-2-methylbutane] + O=S(=O)([N-]S(=O)(=O)C(F)(F)F)C(F)(F)F.OCCC[n+]1ccccc1, the activity coefficient amounted to 4.37 ± 0.3 (308.15 K); 4.45 ± 0.3 (318.15 K); 4.54 ± 0.31 (328.15 K); 4.61 ± 0.31 (338.15 K); 4.7 ± 0.32 (348.15 K); 4.77 ± 0.33 (358.15 K). In addition, the activity coefficient (368.15 K) turned out to be 4.84 ± 0.33.

Regarding `COC(C)(C)C` [2-methoxy-2-methylpropane] + O=S(=O)([N-]S(=O)(=O)C(F)(F)F)C(F)(F)F.OCCC[n+]1ccccc1, the activity coefficient worked out at 2.63 ± 0.18 (308.15 K); 2.74 ± 0.19 (318.15 K); 2.83 ± 0.19 (328.15 K); 2.91 ± 0.2 (338.15 K); 3.01 ± 0.2 (348.15 K); 3.08 ± 0.21 (358.15 K). Further, the activity coefficient (368.15 K) worked out at 3.18 ± 0.22.

Consider `CCC(C)CC` [3-methylpentane] + O=S(=O)([N-]S(=O)(=O)C(F)(F)F)C(F)(F)F.OCCC[n+]1ccccc1, for which the activity coefficient is, setting by setting: (308.15 K) 44 ± 3; (318.15 K) 40 ± 2.7; (328.15 K) 36.6 ± 2.5; (338.15 K) 33.3 ± 2.3; (348.15 K) 30.9 ± 2.1; (358.15 K) 28.5 ± 1.9.

With `CC(=O)O` [acetic acid] + O=S(=O)([N-]S(=O)(=O)C(F)(F)F)C(F)(F)F.OCCC[n+]1ccccc1, the activity coefficient was found to be 0.255 ± 0.03 (318.15 K); 0.277 ± 0.03 (328.15 K); 0.298 ± 0.031 (338.15 K); 0.32 ± 0.031 (348.15 K); 0.343 ± 0.032 (358.15 K); 0.367 ± 0.033 (368.15 K). In addition, for the setting “378.15 K”, the activity coefficient turned out to be 0.388 ± 0.034.

In the case of `CC(C)=O` [acetone] + O=S(=O)([N-]S(=O)(=O)C(F)(F)F)C(F)(F)F.OCCC[n+]1ccccc1, the activity coefficient was determined as 0.403 ± 0.034 (318.15 K); 0.421 ± 0.035 (328.15 K); 0.437 ± 0.035 (338.15 K); 0.453 ± 0.036 (348.15 K); 0.469 ± 0.037 (358.15 K); 0.484 ± 0.037 (368.15 K). Also, the activity coefficient (378.15 K) came to 0.5 ± 0.038.

For the compound `c1ccccc1` [benzene] + O=S(=O)([N-]S(=O)(=O)C(F)(F)F)C(F)(F)F.OCCC[n+]1ccccc1, the activity coefficient reads like this: (318.15 K) 1.58 ± 0.1; (328.15 K) 1.58 ± 0.1; (338.15 K) 1.59 ± 0.11; (348.15 K) 1.6 ± 0.11; (358.15 K) 1.61 ± 0.11; (368.15 K) 1.62 ± 0.11. The activity coefficient (378.15 K) stood at 1.62 ± 0.11.

In the case of `CCCCO` [butan-1-ol] + O=S(=O)([N-]S(=O)(=O)C(F)(F)F)C(F)(F)F.OCCC[n+]1ccccc1, the activity coefficient by setting is: (318.15 K) 2.27 ± 0.15; (328.15 K) 2.14 ± 0.15; (338.15 K) 2.02 ± 0.14; (348.15 K) 1.91 ± 0.13; (358.15 K) 1.82 ± 0.12; (368.15 K) 1.73 ± 0.12. In addition, the activity coefficient (378.15 K) turned out to be 1.67 ± 0.11.

Take `C1CCCCCC1` [cycloheptane] + O=S(=O)([N-]S(=O)(=O)C(F)(F)F)C(F)(F)F.OCCC[n+]1ccccc1: the activity coefficient reads like this: (308.15 K) 36.3 ± 2.5; (318.15 K) 32.8 ± 2.2; (328.15 K) 29.7 ± 2; (338.15 K) 26.9 ± 1.8; (348.15 K) 24.7 ± 1.7; (358.15 K) 22.9 ± 1.6. Besides, where the note is “368.15 K”, the activity coefficient came to 21.2 ± 1.4.

In the case of `C1CCCCC1` [cyclohexane] + O=S(=O)([N-]S(=O)(=O)C(F)(F)F)C(F)(F)F.OCCC[n+]1ccccc1, the activity coefficient is, setting by setting: (308.15 K) 25.5 ± 1.7; (318.15 K) 23.2 ± 1.6; (328.15 K) 21.1 ± 1.4; (338.15 K) 19.4 ± 1.3; (348.15 K) 17.9 ± 1.2; (358.15 K) 16.7 ± 1.1. The activity coefficient (368.15 K) is 15.5 ± 1.1.

`C1=CCCCC1` [cyclohexene] + O=S(=O)([N-]S(=O)(=O)C(F)(F)F)C(F)(F)F.OCCC[n+]1ccccc1: the activity coefficient is, setting by setting: (308.15 K) 11.7 ± 0.8; (318.15 K) 11 ± 0.8; (328.15 K) 10.4 ± 0.7; (338.15 K) 9.81 ± 0.67; (348.15 K) 9.31 ± 0.64; (358.15 K) 8.92 ± 0.61. Moreover, the activity coefficient (368.15 K) is 8.52 ± 0.58.

Consider `C1CCCCCCC1` [cyclooctane] + O=S(=O)([N-]S(=O)(=O)C(F)(F)F)C(F)(F)F.OCCC[n+]1ccccc1, for which the activity coefficient came out at 51.9 ± 3.6 (308.15 K); 46.4 ± 3.2 (318.15 K); 41.6 ± 2.8 (328.15 K); 37.3 ± 2.6 (338.15 K); 34 ± 2.3 (348.15 K); 31.3 ± 2.1 (358.15 K). Further, the activity coefficient (368.15 K) turned out to be 28.6 ± 2.
